From ChEMBL document CHEMBL4483862, “Open-source discovery of chemical leads for next-generation chemoprotective antimalarials” (2018)

System: Plasmodium berghei
Assay: Luciferase/luciferin-expressing antifolate-resistant parasites were used to infect a culture of HepG2 cells that were pre-incubated with compounds. Infected hepatocytes emit light due to the luciferase reaction. Assay results are presented as the percent inhibition of light emission compared to control. […]
Assay type: functional
Conditions: sporozoite; for IC90: read-out: LUCIFERASE INFECTION ASSAY - IC90
[1] = read-out: LUCIFERASE INFECTION ASSAY - IC50

c1ccc2[nH]c(CN3CCN(Cc4csc5ccccc45)CC3)nc2c1
IC50 (PBLUC_HILL_SLOPE 5.23, 12.9, PBLUC_R_SQUARED 0.488, 0.411, read-out: LUCIFERASE INFECTION ASSAY - IC50): 9.2 µM
IC90: > 10 µM

CCCc1cc(=O)oc2cc(OCC(=O)NNC(=S)NC(=O)c3ccc(Cl)cc3)ccc12
IC50 [1]: > 6.96 µM
IC90: > 6.96 µM

O=S(=O)(/C=C/c1ccccc1)N1CCCC(c2nc3ccccc3s2)C1 (configuration not stated)
IC50 (PBLUC_HILL_SLOPE 2.87, PBLUC_R_SQUARED 0.652, read-out: LUCIFERASE INFECTION ASSAY - IC50): > 10 µM
IC90: > 10 µM

COc1cccc(-c2cnn3ccc(Nc4cc(OC)c(OC)c(OC)c4)nc23)c1
IC50 (HEPG2TOX_HILL_SLOPE 6.32, HEPG2TOX_R_SQUARED 0.972, PBLUC_HILL_SLOPE 10.3, PBLUC_R_SQUARED 0.636, read-out: LUCIFERASE INFECTION ASSAY - IC50): 2.7 µM
IC90: 3.34 µM

COc1cc(-c2nc3ccc(NC(=O)Nc4cccc(C(C)=O)c4)cn3n2)cc(OC)c1OC
IC50 (HEPG2TOX_HILL_SLOPE 3.38, HEPG2TOX_R_SQUARED 0.754, PBLUC_HILL_SLOPE 9.64, PBLUC_R_SQUARED 0.711, read-out: LUCIFERASE INFECTION ASSAY - IC50): 1.21 µM
IC90: 1.53 µM

C=CCN(C(=O)c1cccc(S(=O)(=O)N2CCCC2)c1)c1nc2c(s1)CCCC2
IC50 (HEPG2TOX_HILL_SLOPE 2.26, HEPG2TOX_R_SQUARED 0.795, PBLUC_HILL_SLOPE 11.6, 3.98, PBLUC_R_SQUARED 0.244, 0.586, read-out: LUCIFERASE INFECTION ASSAY - IC50): 7.23 µM
IC90: 8.77 µM

CCOC(=O)c1c(-c2ccc(Cl)cc2)csc1NC(=O)CSc1nc2c(c(CC)c1C#N)C(=O)CC(C)(C)C2
IC50 (FFLUC_HILL_SLOPE 17.7, FFLUC_R_SQUARED 0.746, PBLUC_HILL_SLOPE 12.9, PBLUC_R_SQUARED 0.506, read-out: LUCIFERASE INFECTION ASSAY - IC50): 9.02 µM
IC90: > 10 µM

Cc1c(-c2ccccc2)oc2c(C(=O)N(Cc3ccccc3Cl)S(=O)(=O)c3cccc(C(F)(F)F)c3)cccc2c1=O
IC50 (HEPG2TOX_HILL_SLOPE 8.04, HEPG2TOX_R_SQUARED 0.64, PBLUC_HILL_SLOPE 8.59, PBLUC_R_SQUARED 0.6, read-out: LUCIFERASE INFECTION ASSAY - IC50): 7.82 µM
IC90: > 10 µM

CC(C)(C)c1cc2ncc(S(=O)(=O)c3ccc(Cl)cc3)c(N)n2n1
IC50 (HEPG2TOX_HILL_SLOPE 5.77, HEPG2TOX_R_SQUARED 0.0253, read-out: LUCIFERASE INFECTION ASSAY - IC50): > 9.04 µM
IC90: > 9.04 µM

c1ccc(-c2nnc(CSC3=NCCS3)o2)cc1
IC50 [1]: > 10 µM
IC90: > 10 µM

CN(Cc1ccc(C(=O)NC2CC2)cc1)c1ncccc1[N+](=O)[O-]
IC50 (PBLUC_HILL_SLOPE 96.1, PBLUC_R_SQUARED 0.262, read-out: LUCIFERASE INFECTION ASSAY - IC50): 6.41 µM
IC90: 6.56 µM

CCC(C)CNc1cc(C(=O)Nc2cccc(OC)c2)cc(S(=O)(=O)N2CCCC2)c1 (configuration not stated)
IC50 (HEPG2TOX_HILL_SLOPE 12.2, HEPG2TOX_R_SQUARED 0.774, PBLUC_HILL_SLOPE 2.54, PBLUC_R_SQUARED 0.165, read-out: LUCIFERASE INFECTION ASSAY - IC50): 5.57 µM
IC90: > 7.41 µM

Cc1cc(C(=O)COc2cccnc2[N+](=O)[O-])c(C)n1-c1ccc2c(c1)OCO2
IC50 (PBLUC_HILL_SLOPE 1.7, PBLUC_R_SQUARED 0.197, read-out: LUCIFERASE INFECTION ASSAY - IC50): 8.75 µM
IC90: > 10 µM

O=C(Nc1nc(CN2CCOCC2)cs1)c1ccc(-c2ccccc2)cc1
IC50 (HEPG2TOX_HILL_SLOPE 0.446, HEPG2TOX_R_SQUARED 0.661, PBLUC_HILL_SLOPE 0.824, PBLUC_R_SQUARED 0.624, read-out: LUCIFERASE INFECTION ASSAY - IC50): 0.817 µM
IC90: > 10 µM

Cc1sc(NC(=O)CC(C)NC(=O)c2ccccc2)nc1-c1ccc(F)c(F)c1 (configuration not stated)
IC50 [1]: > 10 µM
IC90: > 10 µM

COC(=O)Cc1cc(=O)nc(SCC(=O)c2cc(C)n(-c3ccc(C(C)C)cc3)c2C)[nH]1
IC50 [1]: > 10 µM
IC90: > 10 µM

CC(NCC(O)COc1ccccc1C(C)(C)C)c1ccccc1 (configuration not stated)
IC50 (PBLUC_HILL_SLOPE 2.67, PBLUC_R_SQUARED 0.166, read-out: LUCIFERASE INFECTION ASSAY - IC50): 4.35 µM
IC90: > 9.07 µM

CCOc1ccc2nc3cc(N)ccc3c(N)c2c1 [ETHACRIDINE]
IC50 (HEPG2TOX_HILL_SLOPE 3.77, HEPG2TOX_R_SQUARED 0.987, read-out: LUCIFERASE INFECTION ASSAY - IC50): > 9.61 µM
IC90: > 9.61 µM

CC(C)N(C(=O)NC(=O)Nc1nc(-c2ccccc2)cs1)S(C)(=O)=O
IC50 (HEPG2TOX_HILL_SLOPE 10.9, HEPG2TOX_R_SQUARED 0.151, read-out: LUCIFERASE INFECTION ASSAY - IC50): > 10 µM
IC90: > 10 µM

CN1C/C(=C/c2csnn2)C(=O)/C(=C/c2csnn2)C1
IC50 (HEPG2TOX_HILL_SLOPE 8.98, HEPG2TOX_R_SQUARED 0.932, PBLUC_HILL_SLOPE 14.4, PBLUC_R_SQUARED 0.582, read-out: LUCIFERASE INFECTION ASSAY - IC50): 3.69 µM
IC90: 4.3 µM

CCOC(=O)/C(=C\c1cccc(Br)c1)C1=Nn2c(nnc2-c2ccc(OC)cc2)SC1
IC50 [1]: > 10 µM
IC90: > 10 µM

CSc1ccc(-c2cn3c(-c4ccc(CO)cc4)cnc3cn2)cc1
IC50 [1]: > 9.5 µM
IC90: > 9.5 µM

CC(C)(C)c1ccccc1NC(=O)CCC(=O)N1CCC(c2ccccc2)=N1
IC50 [1]: > 10 µM
IC90: > 10 µM

N#CC(C(=O)COC(=O)c1cc(Br)ccc1O)=C1Nc2ccccc2N1
IC50 (PBLUC_HILL_SLOPE 2.06, PBLUC_R_SQUARED 0.487, read-out: LUCIFERASE INFECTION ASSAY - IC50): 6.23 µM
IC90: > 10 µM

COc1ccccc1N(C)S(=O)(=O)c1ccc(Cl)c(C(=O)Nc2cccc(C)n2)c1
IC50 (PBLUC_HILL_SLOPE 3.61, PBLUC_R_SQUARED 0.716, read-out: LUCIFERASE INFECTION ASSAY - IC50): 1.54 µM
IC90: 2.83 µM

CNc1nc2cnc(Nc3cc(C(F)(F)F)ccc3F)cc2n1Cc1ccccc1
IC50 [1]: > 10 µM
IC90: > 10 µM

O=c1c2ccccc2[nH]c2ccc(Oc3ncnc4ccsc34)cc12
IC50 (FFLUC_HILL_SLOPE 10.4, FFLUC_R_SQUARED 0.538, PBLUC_HILL_SLOPE 5.72, PBLUC_R_SQUARED 0.733, read-out: LUCIFERASE INFECTION ASSAY - IC50): 0.38 µM
IC90: 0.558 µM

COc1ccc(/C=C/C#N)c(Cl)c1OC
IC50 (HEPG2TOX_HILL_SLOPE 1.17, HEPG2TOX_R_SQUARED 0.985, PBLUC_HILL_SLOPE 2.95, PBLUC_R_SQUARED 0.12, read-out: LUCIFERASE INFECTION ASSAY - IC50): 11.3 µM
IC90: > 14.8 µM

Cc1ccc(NC(=O)COCc2nc3ccccc3s2)cc1S(=O)(=O)Nc1ccccc1F
IC50 (HEPG2TOX_HILL_SLOPE 2.14, HEPG2TOX_R_SQUARED 0.975, PBLUC_HILL_SLOPE 2, PBLUC_R_SQUARED 0.573, read-out: LUCIFERASE INFECTION ASSAY - IC50): 4.27 µM
IC90: > 10 µM

CC12CCC(CC1=O)C2(C)C (configuration not stated) [CAMPHOR]
IC50 (FFLUC_HILL_SLOPE 14.9, FFLUC_R_SQUARED 0.342, read-out: LUCIFERASE INFECTION ASSAY - IC50): > 21.7 µM
IC90: > 21.7 µM

N=C(NOC(=O)Nc1ccc(OC(F)(F)F)cc1)c1cnccn1
IC50 [1]: > 9.67 µM
IC90: > 9.67 µM

O=C(CN1C(=O)CSc2ccc(C(F)(F)F)cc21)Nc1ccc(Cl)cc1
IC50 (PBLUC_HILL_SLOPE 15.8, PBLUC_R_SQUARED 0.354, read-out: LUCIFERASE INFECTION ASSAY - IC50): 2.64 µM
IC90: 3.03 µM

COc1ccc(Br)cc1-c1nc(CN2C(=O)NC(C)(c3ccccc3)C2=O)cs1 (configuration not stated)
IC50 (HEPG2TOX_HILL_SLOPE 2.19, HEPG2TOX_R_SQUARED 0.876, PBLUC_HILL_SLOPE 2.71, PBLUC_R_SQUARED 0.259, read-out: LUCIFERASE INFECTION ASSAY - IC50): 2.49 µM
IC90: 5.61 µM

CC12CCC(=O)C(C(F)(F)F)=C1C=CC1C2CCC2(C)C(O)CCC12 (configuration not stated)
IC50 (HEPG2TOX_HILL_SLOPE 4.77, HEPG2TOX_R_SQUARED 0.78, PBLUC_HILL_SLOPE 14.8, PBLUC_R_SQUARED 0.24, read-out: LUCIFERASE INFECTION ASSAY - IC50): 3.1 µM
IC90: 3.6 µM

CCCCNC(=O)Nc1ccn(C)n1
IC50 [1]: > 16.8 µM
IC90: > 16.8 µM

CC(/N=c1\ccccn1C(=O)Nc1ccc(Cl)c(Cl)c1)c1ccco1 (configuration not stated)
IC50 [1]: 6.62 µM
IC90: 9.14 µM

O=C(OCC(=O)N1CCN(C(=O)c2ccco2)CC1)c1cccc(NS(=O)(=O)c2ccc(F)c(F)c2)c1
IC50 [1]: > 10 µM
IC90: > 10 µM

COc1ccc(-c2ccc3c(c2)COC2(CCN(C(=O)c4cc(F)ccc4C)CC2)O3)cc1OC
IC50 [1]: > 6.91 µM
IC90: > 6.91 µM

CC(C)c1noc(CN2CCN(c3ncnc4sc(-c5ccccc5)cc34)CC2)n1
IC50 (HEPG2TOX_HILL_SLOPE 1.77, HEPG2TOX_R_SQUARED 0.986, PBLUC_HILL_SLOPE 2.11, PBLUC_R_SQUARED 0.835, read-out: LUCIFERASE INFECTION ASSAY - IC50): 2.37 µM
IC90: 6.72 µM

CC(C)C1CCC(C)C(OCC(O)CN2CCN(Cc3ccc4c(c3)OCO4)CC2)C1 (configuration not stated)
IC50 [1]: > 10 µM
IC90: > 10 µM

O=C(Cn1nc(-c2ccco2)oc1=O)N(Cc1ccccc1)c1ccccc1
IC50 [1]: > 10 µM
IC90: > 10 µM

O=C(NCc1ccc(-c2nc3ccccc3s2)cc1)c1ccco1
IC50 [1]: 2.81 µM
IC90: 3.45 µM

C[C@@H](C(=O)NNC(=O)c1cccc(S(=O)(=O)N2CCOCC2)c1)N1C(=O)C2CC=CCC2C1=O (some centres not stated)
IC50 [1]: > 10 µM
IC90: > 10 µM

COc1cc(-c2cncc(Nc3cccc(C(F)(F)F)c3)n2)cc(OC)c1OC
IC50 [1]: 4.6 µM
IC90: > 8.14 µM

Cc1ccc(S(=O)(=O)c2ccc(-c3ccccc3)cc2)cc1
IC50 [1]: > 10.7 µM
IC90: > 10.7 µM

COc1ccc(OCc2nnc(SCC(=O)NCC3CCCO3)n2N)cc1 (configuration not stated)
IC50 [1]: > 10 µM
IC90: > 10 µM
